Results reported in patent US11498899B2, “Nitrone herbicides” (FMC Corporation, priority 2016, dated 2022).

Key:
[1] = test system: barnyardgrass (Echinochloa crus-galli); assay: Test A preemergence, visual injury rating 0-100 (0 no effect, 100 complete control); assay type: in vivo; conditions: for Barnyardgrass plant response rating (0 to 100 scale): 125 g ai/ha; for Barnyardgrass plant response rating: 500 g ai/ha, 0 to 100 scale
Text: (§1) Seeds of plant species selected from barnyardgrass (Echinochloa crus-galli), kochia (Kochia scoparia), ragweed (common ragweed, Ambrosia elatior), ryegrass, Italian (Italian ryegrass, Lolium multiflorum), foxtail, giant (giant foxtail, Setaria faberii), foxtail, green (green foxtail, Setaria viridis), and pigweed (Amaranthus retroflexus) were planted into a blend of loam soil and sand and treated preemergence with a directed soil spray using test chemicals formulated in a non-phytotoxic solvent mixture which included a surfactant.
(§2) At the same time, plants selected from these weed species and also wheat (Triticum aestivum), corn (Zea mays), blackgrass (Alopecurus myosuroides), and galium (catchweed bedstraw, Galium aparine) were planted in pots containing the same blend of loam soil and sand and treated with postemergence applications of test chemicals formulated in the same manner. Plants ranged in height from 2 to 10 cm and were in the one- to two-leaf stage for the postemergence treatment. Treated plants and untreated controls were maintained in a greenhouse for approximately 10 days, after which time all treated plants were compared to untreated controls and visually evaluated for injury. […] A dash (-) response means no test result.

[2] = test system: foxtail, giant (giant foxtail, Setaria faberii); assay: Test A preemergence, visual injury rating 0-100; assay type: in vivo; conditions: for Foxtail, Giant plant response rating (0 to 100 scale): 125 g ai/ha; for Foxtail, Giant plant response rating: 500 g ai/ha, 0 to 100 scale
Text: as §1, §2

[3] = test system: kochia (Kochia scoparia); assay: Test A preemergence, visual injury rating 0-100; assay type: in vivo; conditions: for Kochia plant response rating (0 to 100 scale): 125 g ai/ha; for Kochia plant response rating: 500 g ai/ha, 0 to 100 scale
Text: as §1, §2

[4] = test system: pigweed (Amaranthus retroflexus); assay: Test A preemergence, visual injury rating 0-100; assay type: in vivo; conditions: for Pigweed plant response rating (0 to 100 scale): 125 g ai/ha; for Pigweed plant response rating: 500 g ai/ha, 0 to 100 scale
Text: as §1, §2

[5] = test system: ragweed (common ragweed, Ambrosia elatior); assay: Test A preemergence, visual injury rating 0-100; assay type: in vivo; conditions: for Ragweed plant response rating (0 to 100 scale): 125 g ai/ha; for Ragweed plant response rating: 500 g ai/ha, 0 to 100 scale
Text: as §1, §2

[6] = test system: ryegrass, Italian (Italian ryegrass, Lolium multiflorum); assay: Test A preemergence, visual injury rating 0-100; assay type: in vivo; conditions: for Ryegrass, Italian plant response rating (0 to 100 scale): 125 g ai/ha; for Ryegrass, Italian plant response rating: 500 g ai/ha, 0 to 100 scale
Text: as §1, §2

[7] = test system: barnyardgrass (Echinochloa crus-galli); assay: Test A postemergence, visual injury rating 0-100; assay type: in vivo; conditions: 0 to 100 scale
Text: as §1, §2

[8] = test system: blackgrass (Alopecurus myosuroides); assay: Test A postemergence, visual injury rating 0-100; assay type: in vivo; conditions: 0 to 100 scale
Text: as §1, §2

[9] = test system: corn (Zea mays); assay: Test A postemergence, visual injury rating 0-100; assay type: in vivo; conditions: 0 to 100 scale
Text: as §1, §2

[10] = test system: foxtail, giant (giant foxtail, Setaria faberii); assay: Test A postemergence, visual injury rating 0-100; assay type: in vivo; conditions: 0 to 100 scale
Text: as §1, §2

[11] = test system: galium (catchweed bedstraw, Galium aparine); assay: Test A postemergence, visual injury rating 0-100; assay type: in vivo; conditions: 0 to 100 scale
Text: as §1, §2

[12] = test system: kochia (Kochia scoparia); assay: Test A postemergence, visual injury rating 0-100; assay type: in vivo; conditions: 0 to 100 scale
Text: as §1, §2

[13] = test system: pigweed (Amaranthus retroflexus); assay: Test A postemergence, visual injury rating 0-100; assay type: in vivo; conditions: 0 to 100 scale
Text: as §1, §2

[14] = test system: ragweed (common ragweed, Ambrosia elatior); assay: Test A postemergence, visual injury rating 0-100; assay type: in vivo; conditions: 0 to 100 scale
Text: as §1, §2

[15] = test system: ryegrass, Italian (Italian ryegrass, Lolium multiflorum); assay: Test A postemergence, visual injury rating 0-100; assay type: in vivo; conditions: 0 to 100 scale
Text: as §1, §2

[16] = test system: wheat (Triticum aestivum); assay: Test A postemergence, visual injury rating 0-100; assay type: in vivo; conditions: 0 to 100 scale
Text: as §1, §2

[17] = test system: ducksalad (Heteranthera limosa); assay: Test B flooded paddy test, visual rating 0-100; conditions: Flood, 250 g ai/ha, applied to paddy water, rated after 13 to 15 days
[18] = test system: barnyardgrass (Echinochloa crus-galli); assay: Test B flooded paddy test, visual rating 0-100; conditions: Flood, 250 g ai/ha, applied to paddy water, rated after 13 to 15 days
[19] = test system: rice (Oryza sativa); assay: Test B flooded paddy test, visual rating 0-100 (0 no effect, 100 complete control); conditions: Flood, 250 g ai/ha, applied to paddy water, rated after 13 to 15 days

| Structure (SMILES) | Barnyardgrass plant response rating (0 to 100 scale) [1] | Barnyardgrass plant response rating [1] | Foxtail, Giant plant response rating (0 to 100 scale) [2] | Foxtail, Giant plant response rating [2] | Kochia plant response rating (0 to 100 scale) [3] | Kochia plant response rating [3] | Pigweed plant response rating (0 to 100 scale) [4] | Pigweed plant response rating [4] | Ragweed plant response rating (0 to 100 scale) [5] | Ragweed plant response rating [5] | Ryegrass, Italian plant response rating (0 to 100 scale) [6] | Ryegrass, Italian plant response rating [6] | Barnyardgrass plant response rating ([7]; 125 g ai/ha) | Barnyardgrass plant response rating ([7]; 500 g ai/ha) | Blackgrass plant response rating ([8]; 125 g ai/ha) | Blackgrass plant response rating ([8]; 500 g ai/ha) | Corn plant response rating ([9]; 125 g ai/ha) | Corn plant response rating ([9]; 500 g ai/ha) | Foxtail, Giant plant response rating ([10]; 125 g ai/ha) | Foxtail, Giant plant response rating ([10]; 500 g ai/ha) | further results |
| --- | --- | --- | --- | --- | --- | --- | --- | --- | --- | --- | --- | --- | --- | --- | --- | --- | --- | --- | --- | --- | --- |
| CC1=[N+]([O-])C(C)(C(=O)Nc2cccc(F)c2F)C(c2ccc(C(F)(F)F)cc2)C1 (racemic) [Compound 1] | 90 | 100 | 100 | 100 | 70 | 90 | 20 | 80 | 0 | 30 | 0 | 60 | 70 | 90 | 20 | 70 | 0 | 70 | 0 | 80 | Galium plant response rating ([11]; 125 g ai/ha): 80; Galium plant response rating ([11]; 500 g ai/ha): 80; Kochia plant response rating ([12]; 125 g ai/ha): 0; Kochia plant response rating ([12]; 500 g ai/ha): 70; Pigweed plant response rating ([13]; 125 g ai/ha): 20; Pigweed plant response rating ([13]; 500 g ai/ha): 60; Ragweed plant response rating ([14]; 125 g ai/ha): 0; Ragweed plant response rating ([14]; 500 g ai/ha): 30; Ryegrass, Italian plant response rating ([15]; 125 g ai/ha): 0; Ryegrass, Italian plant response rating ([15]; 500 g ai/ha): 20; Wheat plant response rating ([16]; 125 g ai/ha): 30; Wheat plant response rating ([16]; 500 g ai/ha): 70; Ducksalad plant response rating (0 to 100 scale) [17]: 70; Barnyardgrass plant response rating (0 to 100 scale) [18]: 70; Rice plant response rating (0 to 100 scale) [19]: 50 |
| CC1=[N+]([O-])C(C(=O)Nc2cccc(F)c2F)C(c2cccc(Cl)c2)C1 (racemic) [Compound 3] | 100 | 100 | 100 | 100 | 30 | 90 | 20 | 70 | 30 | 70 | 20 | 50 | 80 | 90 | 30 | 80 | 40 | 90 | 80 | 90 | Galium plant response rating ([11]; 125 g ai/ha): 60; Galium plant response rating ([11]; 500 g ai/ha): 70; Kochia plant response rating ([12]; 125 g ai/ha): 20; Kochia plant response rating ([12]; 500 g ai/ha): 60; Pigweed plant response rating ([13]; 125 g ai/ha): 0; Pigweed plant response rating ([13]; 500 g ai/ha): 20; Ragweed plant response rating ([14]; 500 g ai/ha): 50; Ryegrass, Italian plant response rating ([15]; 125 g ai/ha): 0; Ryegrass, Italian plant response rating ([15]; 500 g ai/ha): 70; Wheat plant response rating ([16]; 125 g ai/ha): 30; Wheat plant response rating ([16]; 500 g ai/ha): 80; Ducksalad plant response rating (0 to 100 scale) [17]: 100; Barnyardgrass plant response rating (0 to 100 scale) [18]: 80; Rice plant response rating (0 to 100 scale) [19]: 0 |
